1 compound from article PMC10165104, “The immunosuppressive effects and mechanisms of loureirin B on collagen-induced arthritis in rats” (Frontiers in Immunology, 2023) can be followed below.

The target of the assay is T1, Kv1.3 (mKv1.3) voltage-gated potassium channel (Mus musculus, UniProt P16390).
T1 construct: gene Kcna3
The experiment in a line: whole-cell voltage clamp of mKv1.[…] expressed in HEK293T cells. It is filed as cell-based.

T1 sequence (P16390 whole entry): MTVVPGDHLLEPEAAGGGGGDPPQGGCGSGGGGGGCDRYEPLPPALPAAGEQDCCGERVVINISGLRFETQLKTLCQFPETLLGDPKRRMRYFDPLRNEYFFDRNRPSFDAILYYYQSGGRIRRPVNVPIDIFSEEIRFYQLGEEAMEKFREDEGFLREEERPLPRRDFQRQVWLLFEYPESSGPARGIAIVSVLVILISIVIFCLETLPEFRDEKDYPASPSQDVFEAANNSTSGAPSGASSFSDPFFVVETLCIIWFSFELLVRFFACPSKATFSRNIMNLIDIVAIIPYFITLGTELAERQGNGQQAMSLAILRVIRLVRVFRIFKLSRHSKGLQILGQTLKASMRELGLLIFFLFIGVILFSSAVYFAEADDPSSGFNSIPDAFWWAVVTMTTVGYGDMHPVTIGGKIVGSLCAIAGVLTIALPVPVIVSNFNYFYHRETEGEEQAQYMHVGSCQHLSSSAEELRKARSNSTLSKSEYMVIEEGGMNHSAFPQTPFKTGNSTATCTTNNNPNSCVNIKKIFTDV

In turn, `COc1cc(OC)c(CCC(=O)c2ccc(O)cc2)c(OC)c1` [LrB, Loureirin B] displayed an IC50 of 6.33 ± 0.49 µM.
